Data from PubChem BioAssay AID588807 (The Scripps Research Institute Molecular Screening Center, 2011).
Active and inactive are the calls of the source. The rule behind the calls is not given here.

Experiments:
Test in all cases: competitive ABPP of Abhd10 versus anti-targets – biochemical, fluorescence, gel-based, mouse proteome, selectivity assay for PME-1 inhibitor project, late-stage follow-up (AID 588807)
APEH = settings: anti-target, stronger effect = higher value
[1] = target: Palmitoyl-protein thioesterase ABHD10, mitochondrial (Mus musculus) (UniProt Q6PE15); settings: stronger effect = higher value
Palmitoyl-protein thioesterase ABHD10, mitochondrial (Mus musculus), sequence (Q6PE15 whole entry, looked up): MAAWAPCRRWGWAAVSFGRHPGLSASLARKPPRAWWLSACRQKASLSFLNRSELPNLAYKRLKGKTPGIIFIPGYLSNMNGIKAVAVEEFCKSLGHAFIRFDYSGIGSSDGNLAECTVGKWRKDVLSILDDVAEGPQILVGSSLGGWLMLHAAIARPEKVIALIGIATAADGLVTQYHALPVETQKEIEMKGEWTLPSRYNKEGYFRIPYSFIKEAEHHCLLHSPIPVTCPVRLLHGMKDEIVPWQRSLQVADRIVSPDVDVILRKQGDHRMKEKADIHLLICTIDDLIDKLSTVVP

[2] = target: Prolyl endopeptidase (Mus musculus) (UniProt Q9QUR6); settings: PREP, anti-target, stronger effect = higher value
Prolyl endopeptidase (Mus musculus), sequence (Q9QUR6 whole entry, looked up): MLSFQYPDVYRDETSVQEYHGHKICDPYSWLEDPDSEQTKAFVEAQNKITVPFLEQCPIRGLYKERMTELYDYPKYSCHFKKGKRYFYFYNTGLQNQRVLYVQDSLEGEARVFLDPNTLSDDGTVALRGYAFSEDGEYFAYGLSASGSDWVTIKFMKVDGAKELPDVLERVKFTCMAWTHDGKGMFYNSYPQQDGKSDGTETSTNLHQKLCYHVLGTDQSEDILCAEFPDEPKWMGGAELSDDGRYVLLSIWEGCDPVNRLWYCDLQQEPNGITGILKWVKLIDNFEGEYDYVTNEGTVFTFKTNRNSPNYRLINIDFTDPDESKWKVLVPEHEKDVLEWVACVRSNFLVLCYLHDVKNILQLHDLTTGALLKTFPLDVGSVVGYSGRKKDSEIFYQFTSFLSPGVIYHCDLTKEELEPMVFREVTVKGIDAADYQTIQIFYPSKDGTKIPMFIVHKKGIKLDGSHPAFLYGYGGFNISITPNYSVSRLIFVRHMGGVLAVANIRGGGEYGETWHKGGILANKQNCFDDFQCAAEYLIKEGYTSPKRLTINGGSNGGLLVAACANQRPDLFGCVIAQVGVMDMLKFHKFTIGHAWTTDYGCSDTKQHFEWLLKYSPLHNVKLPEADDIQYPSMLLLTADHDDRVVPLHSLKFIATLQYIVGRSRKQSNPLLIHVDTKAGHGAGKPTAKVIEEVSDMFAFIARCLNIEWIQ

Magl = settings: anti-target, stronger effect = higher value
Kiaa1363 = settings: anti-target, at 10 µM, stronger effect = higher value
[3] = target: Monoacylglycerol lipase ABHD6 (Mus musculus) (UniProt Q8R2Y0); settings: anti-target, stronger effect = higher value
Monoacylglycerol lipase ABHD6 (Mus musculus), sequence (Q8R2Y0 whole entry, looked up): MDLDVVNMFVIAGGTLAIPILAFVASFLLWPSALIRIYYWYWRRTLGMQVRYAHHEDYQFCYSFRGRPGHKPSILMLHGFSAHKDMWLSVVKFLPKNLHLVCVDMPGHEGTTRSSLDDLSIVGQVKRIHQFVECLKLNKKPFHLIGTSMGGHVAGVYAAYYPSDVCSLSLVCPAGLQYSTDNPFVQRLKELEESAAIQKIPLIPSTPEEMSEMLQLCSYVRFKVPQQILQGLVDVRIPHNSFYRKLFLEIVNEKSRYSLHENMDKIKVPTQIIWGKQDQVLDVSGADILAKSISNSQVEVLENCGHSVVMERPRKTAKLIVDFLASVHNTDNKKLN

inhibition (APEH; at 10 µM)	inhibition ([1]; at 10 µM)	inhibition ([1]; inhibition, at 0.1 µM)	inhibition ([1]; inhibition, at 1 µM)	inhibition ([2]; at 10 µM)	inhibition (Magl; at 10 µM)	inhibition (Kiaa1363)	inhibition ([3]; at 10 µM)	inhibition ([2]; inhibition, at 1 µM)	inhibition (Magl; inhibition, at 1 µM)	inhibition ([3]; inhibition, at 1 µM)	inhibition (APEH; inhibition, at 1 µM)	inhibition ([2]; inhibition, at 0.1 µM)	SMILES
0% (inactive)	85% (inactive)	30%	30%	0% (inactive)	0% (inactive)	0% (inactive)	10% (inactive)	–	–	–	–	–	CC[C@]1(c2cccc(C)c2)C(=O)N(C(=O)OC(C)C)N1C(=O)OC(C)C
85% (inactive)	0% (inactive)	–	–	0% (inactive)	0% (inactive)	0% (inactive)	0% (inactive)	–	–	–	–	–	COC(=O)N1C(=O)[C@](c2ccccc2)(C2CCCC2)N1C(=O)OC
10% (inactive)	100% (inactive)	10%	95%	60% (inactive)	25% (inactive)	0% (inactive)	70% (inactive)	20%	10%	–	–	–	CCCOC(=O)N1C(=O)C(CC)(c2cccc(C)c2)N1C(=O)OCCC (stereo unspecified)
45% (inactive)	100%	60%	80%	0% (inactive)	0% (inactive)	0% (inactive)	0% (inactive)	–	–	–	–	–	CCOC(=O)N1C(=O)[C@@](C)(c2cccc(C)c2)N1C(=O)OCC
0% (inactive)	95% (inactive)	40%	90%	0% (inactive)	0% (inactive)	0% (inactive)	25% (inactive)	–	–	–	–	–	CC[C@@]1(c2cccc(OC)c2)C(=O)N(C(=O)OC(C)C)N1C(=O)OC(C)C
40% (inactive)	90% (inactive)	10%	70%	25% (inactive)	0% (inactive)	10% (inactive)	35% (inactive)	–	–	10%	–	–	C=CCOC(=O)N1C(=O)[C@@](CC)(c2ccccc2)N1C(=O)OC
45% (inactive)	100%	60%	100%	50% (inactive)	45% (inactive)	25% (inactive)	50% (inactive)	–	–	–	–	–	CC[C@@]1(c2ccc(Cl)cc2)C(=O)N(C(=O)OC)N1C(=O)OC
95% (inactive)	100% (inactive)	–	70%	40% (inactive)	10% (inactive)	0% (inactive)	10% (inactive)	–	–	–	95%	–	CC[C@@]1(c2ccc(OC)cc2)C(=O)N(C(=O)OC)N1C(=O)OC
50% (inactive)	100% (inactive)	35%	100%	85% (inactive)	45% (inactive)	35% (inactive)	50% (inactive)	20%	–	–	–	–	CC[C@@]1(c2cccc(C)c2)C(=O)N(C(=O)OC)N1C(=O)OC
20% (inactive)	90% (inactive)	35%	85%	65% (inactive)	50% (inactive)	20% (inactive)	75% (inactive)	10%	–	–	–	–	C=CCOC(=O)N1C(=O)[C@@](CC)(c2cccc(C)c2)N1C(=O)OCC=C
0% (inactive)	90% (inactive)	10%	60%	55% (inactive)	20% (inactive)	55% (inactive)	60% (inactive)	25%	–	–	–	10%	C=CCOC(=O)N1N(C(=O)OC)C(=O)[C@@]1(CC)c1ccccc1
0% (inactive)	95%	60%	95%	70% (inactive)	25% (inactive)	0% (inactive)	25% (inactive)	15%	–	–	–	–	CC[C@@]1(c2cccc(F)c2)C(=O)N(C(=O)OC)N1C(=O)OC
0% (inactive)	90%	80%	90%	40% (inactive)	50% (inactive)	10% (inactive)	75% (inactive)	15%	–	–	–	–	C=CCOC(=O)N1C(=O)[C@@](CC)(c2ccc(C)cc2)N1C(=O)OCC=C
70% (inactive)	100% (inactive)	–	95%	30% (inactive)	10% (inactive)	40% (inactive)	10% (inactive)	–	–	–	–	–	CC[C@@]1(c2ccc(OC)cc2)C(=O)N(C(=O)OC(C)C)N1C(=O)OC(C)C
100% (inactive)	45% (inactive)	–	–	0% (inactive)	0% (inactive)	0% (inactive)	0% (inactive)	–	–	–	30%	–	CC[C@]1(c2ccc(C)cc2)C(=O)N(C(=O)OC(C)C)N1C(=O)OC(C)C
0% (inactive)	90% (inactive)	–	65%	0% (inactive)	0% (inactive)	0% (inactive)	0% (inactive)	–	–	–	–	–	CC[C@@]1(c2cccc(OC)c2)C(=O)N(C(=O)OC)N1C(=O)OC
75% (inactive)	100% (inactive)	30%	100%	55% (inactive)	0% (inactive)	0% (inactive)	70% (inactive)	20%	–	20%	–	–	CC[C@@]1(c2cccc(C)c2)C(=O)N(C(=O)OC(C)C)N1C(=O)OC(C)C
75% (inactive)	90% (inactive)	10%	75%	70% (inactive)	10% (inactive)	25% (inactive)	50% (inactive)	–	–	–	–	–	C=CCOC(=O)N1N(C(=O)OC)C(=O)[C@@]1(CC)c1cccc(C)c1
100% (inactive)	90% (inactive)	40%	85%	0% (inactive)	10% (inactive)	15% (inactive)	0% (inactive)	–	–	–	20%	–	CC[C@@]1(c2cccc(F)c2)C(=O)N(C(=O)OC(C)C)N1C(=O)OC(C)C
55% (inactive)	100%	75%	100%	90% (inactive)	0% (inactive)	0% (inactive)	65% (inactive)	20%	–	15%	–	–	CCOC(=O)N1C(=O)[C@@](CC)(c2ccccc2)N1C(=O)OCC
90% (inactive)	95% (inactive)	45%	90%	90% (inactive)	10% (inactive)	20% (inactive)	65% (inactive)	–	–	–	–	–	CC[C@@]1(c2cccc(Cl)c2)C(=O)N(C(=O)OC)N1C(=O)OC
0% (inactive)	10% (inactive)	–	–	0% (inactive)	0% (inactive)	0% (inactive)	0% (inactive)	–	–	–	–	–	CC[C@@]1(c2ccccc2)C(=O)N(C(=O)OC)N1C(=O)OC
0% (inactive)	60% (inactive)	10%	25%	30% (inactive)	0% (inactive)	0% (inactive)	0% (inactive)	10%	–	–	–	–	CC[C@@]1(c2cccc(C)c2)C(=O)N(C(=O)OC(C)C)N1C(=O)OC
0% (inactive)	95% (inactive)	20%	65%	90% (inactive)	0% (inactive)	75% (inactive)	35% (inactive)	–	–	10%	–	–	CC[C@@]1(c2cccc(C)c2)C(=O)N(C(=O)OCc2ccccc2)N1C(=O)OCc1ccccc1
